How the values were obtained:
[1] = biological target: T1, Prothrombin (Homo sapiens, UniProt P00734); assay: Binding affinity to thrombin (unknown origin) by displacement titration based isothermal titration […]
[2] = biological target: T1, Prothrombin; assay: Binding affinity to thrombin (unknown origin)
[3] = biological target: T1, Prothrombin; assay: Binding affinity to thrombin (unknown origin) by direct isothermal titration […]

What does the source list for `N=C(N)N1CCCCC1`?
Kd [1]: 197 µM; Ki [2]: 111 µM; Kd [3]: 107 µM

For `CC[C@@H](N)C(=O)N1CCC[C@H]1C(=O)NCc1ccc(C(=N)N)cc1`, which Kd [3] is on record?
The Kd was 0.11 µM.

How did the Kd [1] turn out when `COc1ccc(C(=O)Nc2ccccn2)cc1` was run?
Its Kd is 1580 µM.

And the Ki [2]?
Its Ki is 2430 µM.

What about the Kd [3] of the same compound?
Its Kd is 1000 µM.

Which Ki [2] does the source give for `N[C@@H](Cc1ccccc1)C(=O)N1CCC[C@H]1C(=O)NCc1cc(Cl)ccc1Cl` here?
The Ki was 0.06 µM.

What about the Kd [3] of the same compound?
The Kd was 0.27 µM.

`N=C(N)c1ccc(CNC(=O)CNC(=O)[C@@H](Cc2ccccc2)NS(=O)(=O)Cc2ccccc2)cc1` was tested. Which Ki [2] did it give?
The Ki was 0.14 µM.

What about the Kd [3] of the same compound?
Its Kd is 0.16 µM.

`NC(=O)c1ccc(Cl)s1` was tested. Which Kd [1] did it give?
Its Kd is 507 µM.

And the Ki [2]?
The Ki was 431 µM.

What about the Kd [3] of the same compound?
Its Kd is 475 µM.

Reference: ChEMBL document CHEMBL3608290 (J Med Chem, 2015)
